This assay can be described thus: The compound was evaluated for the inhibitory activity against human thrombin.

This is an account of results in BindingDB's records for doi:10.1021/jm9811209 (Novartis Horsham Research Centre, 1999).

As usually defined, the Ki is a dissociation constant, usually derived from enzyme kinetics or from competition with a known ligand. As for `CC1(C)CNc2c(cccc2S(=O)(=O)NC(CCCNC(=N)N)C(=O)N2CCC(CCO)CC2)C1` (stereo unspecified) [3,3-Dimethyl-1,2,3,4-tetrahydro-quinoline-8-sulfonic acid {4-guanidino-1-[4-(2-hydroxy-ethyl)-piperidine-1-carbonyl]-butyl}-amide], the affinity corresponds to a Ki of 32 nM.
